According to paper PMC4721142, “Randomized controlled studies on the efficacy of antiarthritic agents in inhibiting cartilage degeneration and pain associated with progression of osteoarthritis in the rat” (Arthritis Research & Therapy, 2016):
Values joined by “and” are separate entries in the source; they are usually repeats but may differ in a detail not shown here. Equal entries are not always repeated.

Experiments:
[1] = Comparison of in vitro screens: overlapping effective and nontoxic range; conditions: for Overlapping effective and nontoxic range: inhibits with minimal or no toxicity to synovium or cartilage, overlapping range if effective in more than one assay;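 on all read-outs here: compares non-toxic ranges in synovial cells and chondrocytes with effective ranges against NFkB, MMP-13 and osteoclasts, giving their overlap as the predicted efficacy range in uM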
[2] = published half-life; cited from earlier work
[3] = system: MMT/MCLT rat model of OA; assay: MMT/MCLT trial 2 histopathology (same doses); type: in vivo; conditions: for Femoral cartilage degeneration score / Total joint score: mean
Source text: For MMT/MCLT rat knee joints, sections were cut in 200-μm steps; stained with toluidine blue (also with a right and left half per section); and similarly analyzed for cartilage degeneration, proteoglycan loss, collagen damage, and osteophyte formation. Results were averaged across the three sections for an overall semiquantitative score. Regional differences across the tibial plateau were taken into consideration by dividing each section into three zones delineated using an ocular micrometer (outside, middle, and inside). Scores were based on the percentage of area affected within the zone.
Cartilage degeneration in the tibia was scored on a 5-point scale as detailed in the Methods section of Additional file 1. The total extent of degeneration of the tibial plateau was measured (in micrometers) and included an analysis of cell loss, proteoglycan loss, and collagen damage. Significant cartilage degeneration reflecting any degeneration extending through more than 50 % of the cartilage thickness was also measured. Collagen damage across the medial tibial plateau (the most severely affected section of the two halves) was also quantified.
Osteophytes and femoral cartilage degeneration were analyzed as detailed in Additional file 1. Scoring of the osteophytes and categorization into small, medium, and large was performed using an ocular micrometer. The actual osteophyte measurement (tidemark to farthest distance point extending toward the synovium) was also recorded. The femoral cartilage degeneration score and the three-zone sum of the tibial cartilage degeneration scores (mean of three levels) were summed to create a total cartilage degeneration score. The mean osteophyte score for each joint was added to this value to create a total joint score. […]
Histopathology MMT/MCLT Model

[4] = system: RAW 264.7 cells; assay: RANKL-mediated osteoclastogenesis / matrix resorption (Osteologic) assay; type: cell-based, murine; conditions: for minimal effective concentration: Mus musculus, RAW264.7, 168 h, read-out: Lowest inhibitory concentration, matrix resorption
Summary of the method: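 Agents were tested during or after differentiation. Wells were bleached and resorption pits were quantified by image analysis versus RANKL-only controls, using an unpaired t-test.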

[5] = system: SW982; assay: Synovial toxicity (CellTiter-Glo), with or without TNF-α
Experimental: Viability was measured with the CellTiter-Glo luminescent viability assay (Promega). […] To more accurately predict the effects of the drugs on osteoarthritic synovium, cells were tested with or without TNF-α (20 ng/ml; BioSource).
In Vitro Toxicity Testing with a Synovial Cell Line
Compounds were tested for synovial toxicity using SW982 cells alone or in the presence of TNF as

[6] = system: MMT/MCLT rat model of OA; assay: MMT/MCLT trial 1 histopathology (same doses); type: in vivo; design: key to Tibial cartilage degeneration score, 3-zone total: sum of three tibial zone scores (each on 5-point scale); key to Total joint score w/o femur / Total joint score / Total joint score without femur: sum: cartilage degeneration scores + mean osteophyte score; conditions: low or only dose; for Bone score / Depth ratio any matrix change, mean / Depth ratio any matrix change, zone 2 / Femoral cartilage degeneration score / Tibial cartilage degeneration score, 3-zone total / Tibial cartilage degeneration score, zone 1 / Tibial cartilage degeneration score, zone 2 / Tibial cartilage degeneration score, zone 3 / Tibial cartilage degeneration width, significant / Tibial cartilage degeneration width, total / Tibial osteophyte measure / Tibial osteophyte score / Total joint score / Total joint score w/o femur: mean; for % decrease, bone score / % decrease, depth ratio mean / % decrease, depth ratio zone 2 / % decrease, femoral cartilage degeneration score / % decrease, osteophyte measure / % decrease, osteophyte score / % decrease, significant degeneration width / % decrease, tibial score 3-zone total / % decrease, tibial score zone 1 / % decrease, tibial score zone 2 / % decrease, tibial score zone 3 / % decrease, total degeneration width / % decrease, total joint score / % decrease, total joint score w/o femur: vs saline group
Summary of the method: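 Rat knee joints were sectioned in 200-μm steps and stained with toluidine blue. Tibial cartilage degeneration was scored on a 5-point scale in three zones and summed with femoral scores, plus osteophyte scores, to give a total joint score. Results were averaged over three sections.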

[7] = system: Normal human articular chondrocytes; assay: Cytotoxicity to chondrogenic pellets (CellTiter-Blue)
Experimental: Differentiated chondrogenic pellets were used both to test the ability of drugs to block MMP-13 activity and to test for drug toxicity. […] Supernatants were collected and analyzed for MMP-13 using an enzyme-linked immunosorbent assay (GE Healthcare Life Sciences, Little Chalfont, UK). Cytotoxicity to pellets was assessed using CellTiter-Blue (Promega).

[8] = tacrolimus 30 ng i.a., clonidine 100 μg/kg s.c.

Structure (SMILES): Clc1cccc(Cl)c1N=C1NCCN1 [Clonidine]
- Overlapping effective and nontoxic range [1]: 10 to 100 µM
- t 1/2 [2]: α2-Receptor agonist and antihypertensive agent Possible induction of iNOS through NF-κB [77] t 1/2 = 6–20 h
- Femoral cartilage degeneration score ([3]; i.a., tacrolimus 15 ng): 0.67 ± 0.23
- Total joint score ([3]; i.a., tacrolimus 15 ng): 9.13 ± 0.54
- Femoral cartilage degeneration score [3, 8]: 0.77 ± 0.28
- Total joint score [3, 8]: 11.03 ± 0.61
- Lowest inhibitory concentration, matrix resorption [4]: 10 µM
- Non-toxic range (Synovial) [5]: 1.56 to 100 µM
- Bone score [6]: 2.88
- Depth ratio any matrix change, mean [6]: 0.35
- Depth ratio any matrix change, zone 2 [6]: 0.16
- Femoral cartilage degeneration score [6]: 1.29 and 1.29 ± 0.20
- Tibial cartilage degeneration score, 3-zone total [6]: 6.13
- Tibial cartilage degeneration score, zone 1 [6]: 4.13
- Tibial cartilage degeneration score, zone 2 [6]: 2.00
- Tibial cartilage degeneration score, zone 3 [6]: 0.00
- Tibial cartilage degeneration width, significant [6]: 691.67 µm
- Tibial cartilage degeneration width, total [6]: 1175.00 µm
- Tibial osteophyte measure [6]: 540.00 µm
- Tibial osteophyte score [6]: 3.92
- Total joint score [6]: 11.33 and 11.33 ± 0.55
- Total joint score w/o femur [6]: 10.04
- % decrease, bone score [6]: 12%
- % decrease, depth ratio mean [6]: 2%
- % decrease, depth ratio zone 2 [6]: 14%
- % decrease, femoral cartilage degeneration score [6]: 30%
- % decrease, osteophyte measure [6]: -5%
- % decrease, osteophyte score [6]: 0%
- % decrease, significant degeneration width [6]: 5%
- % decrease, tibial score 3-zone total [6]: 6%
- % decrease, tibial score zone 1 [6]: 4%
- % decrease, tibial score zone 2 [6]: 9%
- % decrease, tibial score zone 3 [6]: 100%
- % decrease, total degeneration width [6]: 10%
- % decrease, total joint score [6]: 8%
- % decrease, total joint score w/o femur [6]: 4%
- Non-toxic range (Chondrocyte) [7]: 0.156 to 100 µM

Structure (SMILES): COc1cc(/C=C/C(=O)CC(=O)/C=C/c2ccc(O)c(OC)c2)ccc1O [Curcumin, Diferuloylmethane]
- t 1/2 intestinal [2]: 10 min
- t 1/2 plasma [2]: 30 to 50 min
- Femoral cartilage degeneration score ([3]; i.a., tacrolimus 15 ng): 1.63 ± 0.61
- Total joint score ([3]; i.a., tacrolimus 15 ng): 9.57 ± 0.91
- % decrease, tibial score zone 2 ([3]; vs saline group, i.a., tacrolimus 15 ng, curcumin 30 μg): 40%
- Non-toxic range (Synovial) [5]: 1.7 to 54 µM
- Bone score [6]: 3.13
- Femoral cartilage degeneration score [6]: 2.21 and 2.21 ± 0.60
- Tibial cartilage degeneration score, 3-zone total [6]: 6.50
- Tibial cartilage degeneration score, zone 1 [6]: 4.08
- Tibial cartilage degeneration score, zone 2 [6]: 2.38
- Tibial cartilage degeneration score, zone 3 [6]: 0.04
- Tibial cartilage degeneration width, significant [6]: 741.67 µm
- Tibial cartilage degeneration width, total [6]: 1312.50 µm
- Tibial osteophyte measure [6]: 592.92 µm
- Tibial osteophyte score [6]: 4.25
- Total joint score [6]: 12.96 and 12.96 ± 0.62
- Total joint score w/o femur [6]: 10.75
- % decrease, bone score [6]: 4%
- % decrease, femoral cartilage degeneration score [6]: -20%
- % decrease, osteophyte measure [6]: -16%
- % decrease, osteophyte score [6]: -9%
- % decrease, significant degeneration width [6]: -2%
- % decrease, tibial score 3-zone total [6]: 1%
- % decrease, tibial score zone 1 [6]: 5%
- % decrease, tibial score zone 2 [6]: -8%
- % decrease, tibial score zone 3 [6]: 0%
- % decrease, total degeneration width [6]: 0%
- % decrease, total joint score [6]: -5%
- % decrease, total joint score w/o femur [6]: -3%
- Non-toxic range (Chondrocyte) [7]: 0.84 to 27 µM

Structure (SMILES): COc1ccc(C=CC(=O)Nc2ccccc2C(=O)O)cc1OC [Tranilast, N-(3′,4′-dimethoxycinnamoyl)anthranilic acid]
- Non-toxic & predicted range of efficacy [1]: 1 to 8 µM
- Overlapping effective and nontoxic range [1]: 1 to 8 µM
- t 1/2 [2]: Anti-inflammatory and analgesic properties in collagen-induced arthritis (RA model) [34]. Suppresses COX-2 and iNOS expression, reduces PGE2 and iNOS-derived NO production in stimulated macrophages. Diminishes TNF-α and IL-1β production [35]. T1/2 = 7.4 h
- minimal effective concentration [4]: 0.5 µM
- Non-toxic range (Synovial) [5]: 0.125 to 8 µM
- Non-toxic range (Chondrocyte) [7]: 125000 to 8e+06 µM

Structure (SMILES): CC1=C(CO)C(=O)O[C@@H]([C@@H](C)[C@H]2CC[C@H]3[C@@H]4C[C@H]5O[C@]56[C@@H](O)C=CC(=O)[C@]6(C)[C@H]4CC[C@]23C)C1 [Withaferin A]
- Non-toxic & predicted range of efficacy [1]: 0.27 to 2.1 µM
- Overlapping effective and nontoxic range [1]: 4.25 to 17 µM
- t 1/2 [2]: Reportedly inhibits NF-κB activation by preventing the TNF-α-induced activation of IKK-β (IKK-2) [102] Blocks osteoclastogenesis of bone remodeling [103] t 1/2 = 1.36 h
- minimal effective concentration [4]: 0.53 µM
- Non-toxic range (Synovial) [5]: Toxic
- Bone score [6]: 2.88
- Depth ratio any matrix change, mean [6]: 0.38
- Depth ratio any matrix change, zone 2 [6]: 0.18
- Femoral cartilage degeneration score [6]: 1.83 and 1.83 ± 0.52
- Tibial cartilage degeneration score, 3-zone total [6]: 6.04
- Tibial cartilage degeneration score, zone 1 [6]: 4.13
- Tibial cartilage degeneration score, zone 2 [6]: 1.88
- Tibial cartilage degeneration score, zone 3 [6]: 0.04
- Tibial cartilage degeneration width, significant [6]: 637.50 µm
- Tibial cartilage degeneration width, total [6]: 1262.50 µm
- Tibial osteophyte measure [6]: 515.42 µm
- Tibial osteophyte score [6]: 3.96
- Total joint score [6]: 11.83 and 11.83 ± 0.61
- Total joint score w/o femur [6]: 10.00
- % decrease, bone score [6]: 12%
- % decrease, depth ratio mean [6]: -5%
- % decrease, depth ratio zone 2 [6]: 0%
- % decrease, femoral cartilage degeneration score [6]: 0%
- % decrease, osteophyte measure [6]: 0%
- % decrease, osteophyte score [6]: -1%
- % decrease, significant degeneration width [6]: 12%
- % decrease, tibial score 3-zone total [6]: 8%
- % decrease, tibial score zone 1 [6]: 4%
- % decrease, tibial score zone 2 [6]: 15%
- % decrease, tibial score zone 3 [6]: 0%
- % decrease, total degeneration width [6]: 4%
- % decrease, total joint score [6]: 4%
- % decrease, total joint score w/o femur [6]: 4%
- Non-toxic range (Chondrocyte) [7]: 0.27 to 2.1 µM
